From the supplement of paper PMC13380429

Columns and labels:
Conditions in all cases: 72 h
Caco-2 [1] = assay: cell viability relative to DMSO; higher = less toxic
HepG2 [2] = assay: as above
U2OS [3] = assay: as above
Vero E6 [4] = assay: as above
Caco-2 [5] = assay: relative viability EC50 (midpoint between 100% and the lowest measured viability); higher = less toxic
HepG2 [6] = assay: as above
U2OS [7] = assay: as above
Vero E6 [8] = assay: as above
Caco-2 [9] = assay: drug sensitivity score (DSS) for viability; higher = more toxic; extreme values may be limits of the assay
HepG2 [10] = assay: as above
U2OS [11] = assay: as above
Vero E6 [12] = assay: as above
Calu-3 [13] = assay: cell viability relative to DMSO; higher = less toxic
Calu-3 [14] = assay: relative viability EC50 (midpoint between 100% and the lowest measured viability); higher = less toxic
Calu-3 [15] = assay: drug sensitivity score (DSS) for viability; higher = more toxic; extreme values may be limits of the assay

Row | SMILES | cell viability (Caco-2 [1]; 1 nM) | cell viability (Caco-2 [1]; 10 nM) | cell viability (Caco-2 [1]; 100 nM) | cell viability (Caco-2 [1]; 1000 nM) | cell viability (Caco-2 [1]; 10000 nM) | cell viability (HepG2 [2]; 1 nM) | cell viability (HepG2 [2]; 10 nM) | cell viability (HepG2 [2]; 100 nM) | cell viability (HepG2 [2]; 1000 nM) | cell viability (HepG2 [2]; 10000 nM) | cell viability (U2OS [3]; 1 nM) | cell viability (U2OS [3]; 10 nM) | cell viability (U2OS [3]; 100 nM) | cell viability (U2OS [3]; 1000 nM) | cell viability (U2OS [3]; 10000 nM) | cell viability (Vero E6 [4]; 1 nM) | cell viability (Vero E6 [4]; 10 nM) | cell viability (Vero E6 [4]; 100 nM) | cell viability (Vero E6 [4]; 1000 nM) | cell viability (Vero E6 [4]; 10000 nM) | relative viability EC50 (Caco-2 [5]) | relative viability EC50 (HepG2 [6]) | relative viability EC50 (U2OS [7]) | relative viability EC50 (Vero E6 [8]) | drug sensitivity score (Caco-2 [9]) | drug sensitivity score (HepG2 [10]) | drug sensitivity score (U2OS [11]) | drug sensitivity score (Vero E6 [12]) | cell viability (Calu-3 [13]; 1 nM) | cell viability (Calu-3 [13]; 10 nM) | cell viability (Calu-3 [13]; 100 nM) | cell viability (Calu-3 [13]; 1000 nM) | cell viability (Calu-3 [13]; 10000 nM) | relative viability EC50 (Calu-3 [14]) | drug sensitivity score (Calu-3 [15])
1 | Cc1nc2sccn2c(=O)c1CCN1CCC(=C(c2ccccc2)c2ccc(F)cc2)CC1 | 95.3% | 86.7% | 97% | 98.4% | 97.2% | 104% | 96.3% | 100% | 96.9% | 95.8% | 95.6% | 97.6% | 97.3% | 98.7% | 95% | 102% | 101% | 107% | 100% | 94.5% | > 10 µM | > 10 µM | > 10 µM | > 10 µM | 0 | 0 | 0 | 0 | – | – | – | – | – | – | –
2 | CN(C)C(=O)Oc1cccc([N+](C)(C)C)c1 [neostigmine] | 97.2% | 91.9% | 100% | 93.7% | 99.2% | – | – | – | – | – | 97.8% | 95.7% | 102% | 97.9% | 100% | 91.1% | 93.1% | 90.6% | 94.8% | 112% | > 10 µM | – | > 10 µM | > 10 µM | 0 | – | 0 | 0 | – | – | – | – | – | – | –
3 | COc1cc(Nc2ncc3c(n2)-c2ccc(Cl)cc2C(c2c(F)cccc2OC)=NC3)ccc1C(=O)O [alisertib] | 102% | 90% | 83% | 87.9% | 72.8% | 102% | 98% | 58.7% | 66.6% | 61.4% | 102% | 99.7% | 81.5% | 78.2% | 58.6% | 96.3% | 103% | 84.4% | 82.7% | 67% | – | – | – | – | 3.5 | 13.1 | 5.7 | 4.1 | 106% | 105% | 98.1% | 88.4% | 78.8% | > 10 µM | 1.6
4 | C=C(C)[C@@H]1CC=C(CO)CC1 [perillyl-alcohol] | 99% | 99.6% | 102% | 102% | 98.6% | 101% | 93.2% | 108% | 94.5% | 92.9% | 105% | 98.2% | 98.8% | 95.6% | 98.5% | 98% | 102% | 98% | 95.5% | 96% | > 10 µM | > 10 µM | > 10 µM | > 10 µM | 0 | 0 | 0 | 0 | – | – | – | – | – | – | –
5 | NP(N)(=O)NC(=O)c1ccc(F)cc1 [flurofamide] | 95.9% | 96.4% | 90.9% | 94.7% | 91% | 101% | 98.6% | 90.1% | 95% | 103% | 100% | 102% | 97.3% | 99.4% | 96% | 103% | 102% | 103% | 97.6% | 102% | > 10 µM | > 10 µM | > 10 µM | > 10 µM | 0 | 0 | 0 | 0 | – | – | – | – | – | – | –
6 | CCOC(=O)OC(C)OC1=C(C(=O)Nc2ccccn2)N(C)S(=O)(=O)c2ccccc21 (stereo unspecified) [ampiroxicam] | 94.6% | 99.9% | 86.5% | 96.9% | 97.3% | 91.9% | 102% | 101% | 101% | 103% | 97.2% | 102% | 93.9% | 98% | 95% | – | – | – | – | – | > 10 µM | > 10 µM | > 10 µM | – | 0 | 0 | 0 | – | – | – | – | – | – | – | –
7 | COC[C@H]1OC(=O)c2coc3c2[C@@]1(C)C1=C(C3=O)[C@@H]2CCC(=O)[C@@]2(C)C[C@H]1OC(C)=O [wortmannin] | 102% | 99.3% | 88.2% | 58.3% | 40.8% | 98.4% | 97.4% | 98.2% | 98.2% | 86.7% | 95.1% | 99.3% | 94.1% | 91.1% | 65.1% | 106% | 103% | 97.3% | 88.9% | 76.8% | 0.409 µM | > 10 µM | – | > 10 µM | 9.1 | 0.3 | 2.8 | 1.7 | 93.8% | 90.6% | 82.7% | 69.5% | 51.4% | – | 7.9
8 | COC(=O)c1cc(OC)c2c(c1-c1c(CO)cc(OC)c3c1OCO3)OCO2 [bicyclol] | 89.9% | 98.7% | 104% | 101% | 101% | 90.5% | 97.8% | 92.1% | 108% | 100% | 101% | 97.6% | 97.8% | 98.2% | 94.8% | 108% | 105% | 104% | 99.9% | 100% | > 10 µM | > 10 µM | > 10 µM | > 10 µM | 0 | 0 | 0 | 0 | – | – | – | – | – | – | –
9 | O=c1c(O)c(-c2ccc(O)cc2)oc2cc(O)cc(O)c12 [kaempferol] | 98.5% | 99.9% | 97.5% | 95.9% | 82.4% | 93.8% | 86.9% | 106% | 97.5% | 94.1% | 98.2% | 99.6% | 97% | 96.7% | 101% | 101% | 104% | 98.5% | 102% | 103% | > 10 µM | > 10 µM | > 10 µM | > 10 µM | 0.9 | 0 | 0 | 0 | – | – | – | – | – | – | –
10 | CCOc1ccc(C(=O)OCCN(CC)CC)cc1 [parethoxycaine] | 97.1% | 85.1% | 95.6% | 93.7% | 104% | 98.6% | 116% | 106% | 108% | 102% | 101% | 92.8% | 103% | 98.1% | 98.8% | 94.6% | 95.6% | 92.3% | 97.5% | 111% | > 10 µM | > 10 µM | > 10 µM | > 10 µM | 0 | 0 | 0 | 0 | – | – | – | – | – | – | –
11 | CCN(CC)CCOC(=O)C1(c2ccccc2)CCCC1 [caramiphen] | – | – | – | – | – | – | – | – | – | – | – | – | – | – | – | – | – | – | – | – | – | – | – | – | – | 0 | 0 | 0 | – | – | – | – | – | – | 0
12 | CNC(=O)[C@H](Cc1ccccc1)NC(=O)[C@H](CC(C)C)[C@H](CSc1cccs1)C(=O)NO [batimastat] | 94.1% | 105% | 92.8% | 94.2% | 85% | 98.2% | 95.6% | 99% | 90.9% | 93.6% | 94.3% | 105% | 97% | 98.4% | 90.1% | 93.4% | 97.7% | 92.3% | 84.4% | 83.8% | > 10 µM | > 10 µM | > 10 µM | > 10 µM | 0.3 | 0 | 0 | 1.4 | 92.9% | 96.2% | 89.4% | 82.9% | 65.5% | – | 3.8
13 | CN(N=O)C(=O)N[C@@H](C=O)[C@@H](O)[C@H](O)[C@H](O)CO [streptozotocin] | 106% | 82.3% | 79.9% | 85.2% | 96.2% | 98.3% | 90.7% | 104% | 101% | 101% | 106% | 97.5% | 100% | 102% | 103% | 98.5% | 98.1% | 98.4% | 96.7% | 92.6% | > 10 µM | > 10 µM | > 10 µM | > 10 µM | 1 | 0 | 0 | 0 | – | – | – | – | – | – | –
14 | O=c1c(-c2ccc(O)cc2)coc2cc(O)ccc12 [daidzein] | – | – | – | – | – | – | – | – | – | – | – | – | – | – | – | – | – | – | – | – | – | – | – | – | – | 0 | 0 | 0 | – | – | – | – | – | – | 0
15 | O=C1[O][SbH]23[O]C(=O)C([O]2)C2[O][SbH]4([O]C(=O)C([O]4)C1[O]3)[O]C2=O [antimonyl] | 106% | 94.7% | 99.2% | 84.7% | 71.5% | 96.3% | 105% | 101% | 95.7% | 48% | 95.6% | 97.1% | 97.6% | 96.5% | 84.8% | 98.7% | 103% | 106% | 107% | 102% | – | 2.48 µM | > 10 µM | > 10 µM | 2.8 | 3.4 | 0.5 | 0 | – | – | – | – | – | – | –
16 | O=[N+]([O-])O[C@@H]1CO[C@H]2[C@@H]1OC[C@@H]2O [isosorbide-mononitrate] | 100% | 111% | 94.4% | 117% | 114% | 101% | 108% | 91.2% | 98.7% | 93.3% | 96.5% | 96.8% | 93.5% | 96.7% | 97.2% | 103% | 103% | 101% | 104% | 94.4% | > 10 µM | > 10 µM | > 10 µM | > 10 µM | 0 | 0 | 0 | 0 | – | – | – | – | – | – | –
17 | Cc1nc(NC(=O)N2CCC[C@H]2C(N)=O)sc1-c1csc(C(C)(C)C)n1 [A66] | 98.5% | 87.5% | 95.8% | 92% | 78.9% | 84.2% | 96% | 84% | 89.8% | 73.3% | 103% | 97.4% | 98.6% | 93% | 88.7% | 98.5% | 96.5% | 95.3% | 101% | 87.9% | > 10 µM | > 10 µM | > 10 µM | > 10 µM | 1 | 0 | 0 | 0 | – | – | – | – | – | – | –
18 | COc1cc(NC(=O)Nc2cccc(CNC(=O)O[C@H]3CCOC3)c2)ccc1-c1cnco1 [merimepodib] | – | – | – | – | – | – | – | – | – | – | – | – | – | – | – | – | – | – | – | – | – | – | – | – | – | 4.3 | 3.7 | 0 | – | – | – | – | – | – | 3.6
